A short description of series [1]: Stability of crystalline form A (polymorphic form identification by XRPD on storage). In kind it is physicochemical. The following applies: 1 Month, complies with Form A. From the text:
Stability data of crystalline form A of deucravacitinib prepared by the present invention: […]

The nature of series [2]: Particle size of crystalline form A (Example 38). In kind it is physicochemical.

SMILES strings stand for the structures.

Turning to `[2H]C([2H])([2H])NC(=O)c1nnc(NC(=O)C2CC2)cc1Nc1cccc(-c2ncn(C)n2)c1OC` [crystalline form A of deucravacitinib, 6-(cyclopropanecarboxamido)-4-((2-methoxy-3-(1-methyl-1H-1,2,4-triazol-3-yl)phenyl)amino)-N-(trideuteriomethyl)pyridazine-3-carboxamide], the “Polymorphic Form Identification: XRPD pattern should exhibit characteristic peaks of Form A at 10.1°, 12.4°, 18.9°, 19.3° and 20.4° ± 0.2° 2 theta” value in series [1] (storage 25 °C/60% RH), in series [1] (storage 40 °C/75% RH) and in series [1] (storage 60 °C/90% RH) was “Complies” throughout. For the same compound, the “Particle Size D10” value in series [2] (After jet milling) is given as 1.6 μm; in series [2] (before jet milling) it was 9.4 μm. The figures for the “Particle Size D50” value in series [2] (After jet milling) and in series [2] (before jet milling) were 3.0 μm and 21.64 μm, respectively. The entries for the “Particle Size D90” value in series [2] (After jet milling) and in series [2] (before jet milling) were 5.6 μm and 39.49 μm, respectively.

For the origin of these results see patent publication US20260317307A1, “Process for the Preparation of Deucravacitinib, and Crystalline Forms Thereof” (Alivus Life Sciences Limited, priority 2023, published 2026).
